The test system of experiment [1] is imMKCL. The experiment can be described thus: HDAC6 inhibitor addition in shaking flask culture: number of platelets. The class given is cell-based, human. The following applies: for number of platelets produced: added in a concentration of 100 nM or more to a medium. As for the experimental part: After turning genes (c-MYC, BMI1, and BCL-XL) off, 1×10^5 cells/ml of imMKCL was seeded in a flask to carry out shaking flask culture using a platelet producing medium. The culture was carried out under the shaking conditions of 100 rpm, 37° C., and 5% CO2. To the platelet producing medium, BML-281 1 nM, 10 nM, or 100 nM, or Nexturastat A 20 nM was added as an HDAC6 inhibitor at the time of starting the culture. […] The number of platelets was measured on Day 6 after addition of these HDAC6 inhibitors.
(§1) After turning genes (c-MYC, BMI1, and BCL-XL) off, 1×10^5 cells/ml of imMKCL was seeded in a flask to carry out shaking flask culture using a platelet producing medium under a shaking condition of 100 rpm. Further, after turning genes (c-MYC, BMI1, and BCL-XL) off, 1×10^5 cells/ml of imMKCL was seeded in a culture dish to carry out static culture. For both shaking culture and static culture, BML-281 100 nM, or Nexturastat A 500 nM, 1 μM, or 2 μM was added at the time of starting the cultures. The number of platelets was measured on Day 6 from addition of these HDAC6 inhibitors. Additionally, Annexin V positive ratios of the obtained platelets were measured.
(§2) Subsequently, in order to examine in more detail which process in megakaryocyte maturation is affected by the HDAC6 inhibitor, the timing of adding Nexturastat A 2 μM during the flask culture was changed to Day 3, Day 4, and Day 5 from the start of the culture after the gene off and the effect on the amount of platelets to be produced was studied. Culture conditions other than the timing of adding HDAC6 inhibitors were the same as those in the experiment referring to FIGS. 21 to 24. […] In FIG. 24, panel (c), PPF was recognized at Day 5 in static culture. In view of this, the effect available at the time of shedding platelets (presumed mechanism) seems to be about 40%.

Experiment [2] relates to imMKCL. Description: HDAC6 inhibitor addition in static culture: cell morphology by microscope. The class given is cell-based, human. Particulars: for degree of hypertrophy: versus DMSO group; for cell morphology (apoptosis, hypertrophy): Day 3 from gene off; for PPF associated with megakaryocyte maturation: Day 5 from gene off. The procedure: To confirm if apoptosis was caused due to the drug addition, cell morphology was observed when dimethyl sulfoxide (DMSO) was used as a solvent control of the drug or an HDAC6 inhibitor was added at the time of starting the culture in the platelet producing medium in a static culture under the same conditions as above. […] In the photograph, cell hypertrophy associated with megakaryocyte maturation is observed. […] PPF associated with megakaryocyte maturation is recognized. FIG. 24, panels (e) and (f) show cell morphology on Day 5 from the gene off static culture to which BML-281 100 nM was added and to which Nexturastat A 2 μM was added, respectively. […] Additionally, when an HDAC6 inhibitor was added, the degree of megakaryocyte maturation is rather hindered but proceeds to hypertrophy. Based on the above findings, HDAC6, seems to have role in the proplatelet formation.

The target in experiment [3] is T1, HDAC6 (Homo sapiens, UniProt Q9UBN7).
T1 sequence (Q9UBN7 1-1215): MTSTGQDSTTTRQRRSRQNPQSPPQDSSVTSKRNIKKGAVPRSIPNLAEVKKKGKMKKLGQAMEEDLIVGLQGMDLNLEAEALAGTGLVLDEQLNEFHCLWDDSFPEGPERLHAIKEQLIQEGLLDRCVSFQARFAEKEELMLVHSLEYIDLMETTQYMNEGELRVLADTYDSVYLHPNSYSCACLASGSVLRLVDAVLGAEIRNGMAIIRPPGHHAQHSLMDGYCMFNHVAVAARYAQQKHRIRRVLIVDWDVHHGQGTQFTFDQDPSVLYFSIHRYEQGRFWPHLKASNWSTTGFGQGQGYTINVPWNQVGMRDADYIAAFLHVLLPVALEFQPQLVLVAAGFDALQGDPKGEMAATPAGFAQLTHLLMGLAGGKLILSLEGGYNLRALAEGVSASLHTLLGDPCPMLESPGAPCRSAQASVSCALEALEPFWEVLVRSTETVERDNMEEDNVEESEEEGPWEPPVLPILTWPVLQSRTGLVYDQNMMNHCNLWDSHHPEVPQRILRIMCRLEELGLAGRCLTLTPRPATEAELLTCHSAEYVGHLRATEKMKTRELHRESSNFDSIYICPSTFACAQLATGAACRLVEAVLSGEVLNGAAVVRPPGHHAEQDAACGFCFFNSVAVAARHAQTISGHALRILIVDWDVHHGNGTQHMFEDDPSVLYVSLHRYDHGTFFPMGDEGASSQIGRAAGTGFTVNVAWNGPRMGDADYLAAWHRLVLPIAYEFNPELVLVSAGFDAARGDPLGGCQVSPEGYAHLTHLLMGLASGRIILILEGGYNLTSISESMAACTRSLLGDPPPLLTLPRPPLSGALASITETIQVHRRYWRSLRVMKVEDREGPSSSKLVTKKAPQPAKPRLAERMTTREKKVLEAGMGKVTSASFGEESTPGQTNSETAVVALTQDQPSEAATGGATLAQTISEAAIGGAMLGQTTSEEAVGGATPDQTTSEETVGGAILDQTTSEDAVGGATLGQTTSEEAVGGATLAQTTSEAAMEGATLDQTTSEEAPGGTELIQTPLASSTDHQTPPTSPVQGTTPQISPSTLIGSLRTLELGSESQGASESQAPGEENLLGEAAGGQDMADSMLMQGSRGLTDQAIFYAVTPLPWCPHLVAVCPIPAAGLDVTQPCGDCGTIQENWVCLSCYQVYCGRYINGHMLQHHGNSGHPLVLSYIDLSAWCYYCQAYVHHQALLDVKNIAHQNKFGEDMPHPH
The following applies: cited from earlier work.

The subject of experiment [4] is imMKCL. Description: HDAC6 inhibitor addition in static culture (Dish): number of platelets. The class given is cell-based, human. As for the experimental part: as §1, §2

With `CC(C)(C)OC(=O)Nc1ccc(-c2cc(C(=O)NCCCCCCC(=O)NO)no2)cc1` [BML-281, N-Hydroxy-7-[5-(4-tertbutoxycarbonylaminophenyl)-3-isoxazolecarboxamido]heptanamide], in experiment [1], the “number of platelets produced” value is given as “considerably suppress the number of platelets produced”. For the same compound, in experiment [1] (shaking flask culture, 100 nM added at start of culture), the “platelet production (number of platelets on Day 6)” value is “notable reduction in the platelet production”. Moreover, the degree of hypertrophy result in experiment [2] (Day 3, 100 nM) is “slightly lower than the group containing DMSO”. Moreover, in experiment [2] (100 nM), the “cell morphology (apoptosis, hypertrophy)” value is “Apoptosis is not recognized but cell hypertrophy is recognized” and the “PPF associated with megakaryocyte maturation” value is “not recognized”. Besides, in experiment [3], the “known HDAC inhibition” value is “inhibit HDAC6, 1, 2, 7, 8, and 10”.

Take `CCCCN(Cc1ccc(C(=O)NO)cc1)C(=O)Nc1ccccc1` [Nexturastat A, 4-[[Butyl[(phenylamino)carbonyl]amino]methyl]-N-hydroxybenzamide]: the “number of platelets produced” value in experiment [1] is given as “considerably suppress the number of platelets produced”. Besides, the “number of platelets produced on Day 6, concentration dependence” value in experiment [1] (shaking flask culture, 500 nM, 1 μM, or 2 μM added at start) is “decreases in an inhibitor concentration-dependent manner”; in experiment [4] (static culture, 500 nM, 1 μM, or 2 μM added at start), “decreases in an inhibitor concentration-dependent manner”. The “platelet production (number of platelets on Day 6)” value in experiment [1] (shaking flask culture, 2 μM added) is reported as “notable reduction in the platelet production”. The platelet production entry is “notable reduction in the platelet production” in experiment [1] (shaking flask culture, 2 μM added on Day 0 or Days 3 and 4 after gene off); “production equivalent to that in non-addition group” in experiment [1] (shaking flask culture, 2 μM added on Day 5 after gene off). The “reduction of number of platelets produced” value in experiment [4] (static culture (Dish), 2 μM added on Day 5) is reported as “about 40%”. The degree of hypertrophy entry in experiment [2] (Day 3, 2 μM) is reported as “slightly lower than the group containing DMSO”. In addition, the “cell morphology (apoptosis, hypertrophy)” value in experiment [2] (2 μM) is on record as “Apoptosis was not recognized but cell hypertrophy was observed”. Moreover, the “PPF associated with megakaryocyte maturation” value in experiment [2] (2 μM) is “not recognized”. Moreover, the “known HDAC inhibition” value in experiment [3] was “specifically inhibit HDAC6”.

Source of the values: patent US11952587B2, “Method for producing platelets” (KYOTO UNIVERSITY, priority 2017, dated 2024).
